How the values were obtained:
[1] = tested on: femoral arteries after vascular injury; assay: Guidewire-induced femoral artery endothelial denudation injury, neointima formation (tissue analysis, elastic staining); type: in vivo, C57BL/6 mice; conditions: non-diabetic mice, femoral artery guide wire injury, 4 weeks after injury, 0.083 g/kg chow (3 mg/kg/d oral)
Text: 6-week-old male C57BL/6 mice were purchased and were housed in a polycarbonate cage with a wooden chip mat on the floor; water was available ad libitum. C57BL/6 mice were divided into 2 groups: control (n=14) and linagliptin-treated (n=14). At age 7 weeks, control mice were fed normal chow (22.6% protein, 53.8% carbohydrate, 5.6% fat, 6.6% mineral and vitamin mixture, and 3.3% fiber; total: 356 kcal/100 g) with vehicle; linagliptin-treated mice were fed normal chow with linagliptin (0.083 g/kg chow, which results in mean plasma levels of 50-150 nM, corresponding to an oral dose of 3 mg/kg/d). The animal room was kept on a 12-h light/dark cycle at a constant temperature (22±1° C.) with relative humidity of 55±5% throughout the experimental period. Endothelial denudation injuries were induced in the femoral artery at age 8 weeks, followed by evaluation of neointimal formation at age 12 weeks. Mouse femoral artery endothelial denudation injury was induced in C57BL/6 mice in the control and linagliptin groups at age 8 weeks, as previously described. […] Serial sections of 1.5 mm proximal region from the incision site for the wire insertion were evaluated by staining with Elastica van Gieson stain kit (4033-4037, Muto Pure Chemicals Co., Tokyo, Japan) to visualize the internal elastic lamina.

[2] = Body weight and blood glucose in non-diabetic mice; type: in vivo, C57BL/6 mice; conditions: linagliptin vs. control, 0.083 g/kg chow (3 mg/kg/d oral)
Text: (§1) 6-week-old male C57BL/6 mice were purchased and were housed in a polycarbonate cage with a wooden chip mat on the floor; water was available ad libitum. C57BL/6 mice were divided into 2 groups: control (n=14) and linagliptin-treated (n=14). At age 7 weeks, control mice were fed normal chow (22.6% protein, 53.8% carbohydrate, 5.6% fat, 6.6% mineral and vitamin mixture, and 3.3% fiber; total: 356 kcal/100 g) with vehicle; linagliptin-treated mice were fed normal chow with linagliptin (0.083 g/kg chow, which results in mean plasma levels of 50-150 nM, corresponding to an oral dose of 3 mg/kg/d). The animal room was kept on a 12-h light/dark cycle at a constant temperature (22±1° C.) with relative humidity of 55±5% throughout the experimental period. Endothelial denudation injuries were induced in the femoral artery at age 8 weeks, followed by evaluation of neointimal formation at age 12 weeks.

[3] = tested on: active GLP-1; assay: Serum active GLP-1 concentration (ELISA) in non-diabetic mice; type: in vivo, C57BL/6 mice; conditions: linagliptin vs. control, 0.083 g/kg chow (3 mg/kg/d oral)
Text: as §1

[4] = tested on: rat aortic SMC; assay: FBS-induced vascular smooth muscle cell proliferation, BrdU incorporation assay; type: cell-based; conditions: in vitro, 10% FBS for 24 h, 12-h pre-treatment of linagliptin
Method: Rat aortic vascular SMC (VSMC) and mouse aortic VSMC were serum-deprived in Dulbecco's modified Eagle's medium containing 0.1% fetal bovine serum (FBS) for at least 24 h and subjected to mitogenic stimulation with 10% FBS for 24 h with or without 12-h pre-treatment of linagliptin at the indicated concentration BrdU Assay. To evaluate cell proliferation of rat aortic SMC, the bromodeoxyuridine (BrdU) incorporation assay was performed using the Cell Proliferation enzyme-linked immunosorbent assay (ELISA) kit (1647229, Roche Applied Science, Mannheim, Germany) as previously described.

[5] = Plasma levels of linagliptin in mice fed linagliptin in chow; type: in vivo, C57BL/6 mice; conditions: 0.083 g/kg chow, corresponding to oral dose of 3 mg/kg/d
Text: as §1

Question: For CC#CCn1c(N2CCC[C@@H](N)C2)nc2c1c(=O)n(Cc1nc(C)c3ccccc3n1)c(=O)n2C [Linagliptin, 1-[(4-methyl-quinazolin-2-yl)methyl]-3-methyl-7-(2-butyn-1-yl)-8-(3-(R)-amino-piperidin-1-yl)-xanthine], which “neointima formation after vascular injury (intima area, media area, intima/media ratio)” value [1] is on record?
Answer: Its value is “attenuates”.

Question: What about the blood glucose [2] of the same compound?
Answer: The blood glucose was “does not change”.

Question: And the body weight [2]?
Answer: Its body weight is “does not change”.

Question: What about the “serum active GLP-1 concentration (ELISA)” value [3] of the same compound?
Answer: The value was “increases”.

Question: What about the “FBS-induced vascular smooth muscle (SMC) proliferation (BrdU assay)” value [4] of the same compound?
Answer: Its value is “reduces”.

Question: And the mean plasma levels [5]?
Answer: Its mean plasma levels is 0.05 to 0.15 µM.
